# Data: patent publication US5858684A, “Method of screening calcium receptor-active molecules” (priority 1995, dated 1999)
# “Also recorded” adds a separate entry of the source. Read-outs that look alike come from different tables or passages of the source.
# Assays:
# [1] = system: PTH secretion from bovine parathyroid cells; assay: PTH secretion from bovine parathyroid cells; assay type: cell-based; settings: bovine parathyroid cells
# Method: PTH secretion was measured by first suspending cells in PCB containing 0.5 mM CaCl2 and 0.1% BSA.
# [2] = target: T1, human parathyroid cells (calcium receptor) (Homo sapiens, UniProt P41180); assay type: cell-based; settings: 1 μM
# T1 sequence (P41180 20-1078): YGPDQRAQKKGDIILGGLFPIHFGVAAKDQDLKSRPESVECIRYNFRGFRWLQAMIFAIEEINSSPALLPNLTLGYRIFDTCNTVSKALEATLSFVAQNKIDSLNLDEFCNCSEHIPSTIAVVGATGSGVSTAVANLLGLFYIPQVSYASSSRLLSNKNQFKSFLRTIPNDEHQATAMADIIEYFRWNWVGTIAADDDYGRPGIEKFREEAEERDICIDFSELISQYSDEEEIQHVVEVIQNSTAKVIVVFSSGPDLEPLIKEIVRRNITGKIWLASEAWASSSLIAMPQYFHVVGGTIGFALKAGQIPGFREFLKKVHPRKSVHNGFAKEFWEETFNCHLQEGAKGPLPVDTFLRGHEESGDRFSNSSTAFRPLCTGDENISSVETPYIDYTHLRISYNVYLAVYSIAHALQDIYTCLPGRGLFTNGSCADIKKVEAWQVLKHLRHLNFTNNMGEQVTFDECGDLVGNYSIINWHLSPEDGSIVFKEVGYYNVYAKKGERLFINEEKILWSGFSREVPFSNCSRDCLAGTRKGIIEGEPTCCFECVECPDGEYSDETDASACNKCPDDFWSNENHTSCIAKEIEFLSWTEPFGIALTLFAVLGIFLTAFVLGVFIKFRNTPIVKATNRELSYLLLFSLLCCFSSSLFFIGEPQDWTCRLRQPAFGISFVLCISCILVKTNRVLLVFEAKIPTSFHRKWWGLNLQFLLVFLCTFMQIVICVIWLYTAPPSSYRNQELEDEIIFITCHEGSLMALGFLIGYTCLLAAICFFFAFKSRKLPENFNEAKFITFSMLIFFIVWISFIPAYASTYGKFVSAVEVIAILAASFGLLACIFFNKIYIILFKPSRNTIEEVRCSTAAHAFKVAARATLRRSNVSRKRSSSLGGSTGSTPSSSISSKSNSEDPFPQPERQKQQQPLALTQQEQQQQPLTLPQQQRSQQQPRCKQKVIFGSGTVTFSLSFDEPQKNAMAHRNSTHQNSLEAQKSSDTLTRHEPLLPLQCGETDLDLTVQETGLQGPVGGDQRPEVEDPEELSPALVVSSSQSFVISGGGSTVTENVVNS
# Method: Human parathyroid glands, were obtained from patients undergoing surgical removal of parathyroid tissue for primary or uremic hyperparathyroidism (uremic HPT), and were treated similarly to bovine tissue.
# (§3) The cells were then pelleted, resuspended in the same buffer, but lacking the ester, and incubated a further 15 minutes at 37° C. The cells were subsequently washed twice with PCB containing 0.5 mM CaCl2 and 0.5% BSA and maintained at room temperature (about 20° C.). Immediately before use, the cells were diluted five-fold with prewarmed 0.5 mM CaCl2 -PCB to obtain a final BSA concentration of 0.1%. The concentration of cells in the cuvette used for fluorescence recording was 1-2×10^6 /ml.
# (§4) The fluorescence of indicator-loaded cells was measured at 37° C. in a spectrofluorimeter (Biomedical Instrumentation Group, University of Pennsylvania, Philadelphia, Pa.) equipped with a thermostated cuvette holder and magnetic stirrer using excitation and emission wavelengths of 340 and 510 nm, respectively. […] Leakage of dye is dependent on temperature and most occurs within the first 2 minutes after warming the cells in the cuvette. Dye leakage increases only very slowly thereafter. To correct the calibration for dye leakage, cells were placed in the cuvette and stirred at 37° C. for 2-3 minutes. The cell suspension was then removed, the cells pelleted, and the supernatant returned to a clean cuvette. […] This estimate was subtracted from the apparent Fmin.
# [3] = target: T2, C-cell calcium receptor (Rattus norvegicus, UniProt P48442); assay type: cell-based; parameters: Neoplastic C-cells derived from a rat medullary thyroid carcinoma (rMTC 6-23); host or cells: rMTC 6-23; settings: rMTC 6-23 cells, fura-2; inactive = no increase in cytosolic Ca2+ at 1-5 mM
# T2 sequence (P48442 20-1079): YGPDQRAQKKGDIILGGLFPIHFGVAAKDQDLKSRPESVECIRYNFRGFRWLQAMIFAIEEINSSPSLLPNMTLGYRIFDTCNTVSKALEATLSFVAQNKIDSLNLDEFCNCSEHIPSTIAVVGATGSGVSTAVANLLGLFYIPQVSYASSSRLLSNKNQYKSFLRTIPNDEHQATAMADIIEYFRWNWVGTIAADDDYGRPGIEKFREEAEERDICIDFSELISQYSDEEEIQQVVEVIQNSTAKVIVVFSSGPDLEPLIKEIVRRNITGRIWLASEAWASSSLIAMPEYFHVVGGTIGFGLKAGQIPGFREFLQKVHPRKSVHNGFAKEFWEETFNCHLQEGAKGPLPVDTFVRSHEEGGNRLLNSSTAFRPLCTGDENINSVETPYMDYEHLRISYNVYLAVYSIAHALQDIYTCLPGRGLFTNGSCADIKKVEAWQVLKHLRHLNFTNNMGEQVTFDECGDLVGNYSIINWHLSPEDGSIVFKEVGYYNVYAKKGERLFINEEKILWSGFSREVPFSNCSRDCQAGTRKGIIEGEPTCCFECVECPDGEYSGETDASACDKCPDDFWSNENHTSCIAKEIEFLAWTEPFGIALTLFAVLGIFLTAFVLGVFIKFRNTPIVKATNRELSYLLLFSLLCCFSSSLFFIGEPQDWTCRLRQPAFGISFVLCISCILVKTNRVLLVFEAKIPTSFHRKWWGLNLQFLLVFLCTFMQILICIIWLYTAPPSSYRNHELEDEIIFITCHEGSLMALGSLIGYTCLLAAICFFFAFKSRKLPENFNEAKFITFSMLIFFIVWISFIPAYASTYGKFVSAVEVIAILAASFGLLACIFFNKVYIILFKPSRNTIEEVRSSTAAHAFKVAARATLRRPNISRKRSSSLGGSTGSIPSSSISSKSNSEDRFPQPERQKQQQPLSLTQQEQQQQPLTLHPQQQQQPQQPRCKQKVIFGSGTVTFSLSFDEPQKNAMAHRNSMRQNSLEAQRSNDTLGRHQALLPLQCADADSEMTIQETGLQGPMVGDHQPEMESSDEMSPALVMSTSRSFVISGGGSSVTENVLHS
# Excerpt: To assess the effects of molecular polycations on C-cells, a neoplastic cell line, derived from a rat medullary thyroid carcinoma (rMTC 6-23 cells) was used.
# [4] = net positive charge; assay type: physicochemical
# [5] = target: T3, calcium receptor expressed from human parathyroid cell mRNA in Xenopus oocytes (Homo sapiens, UniProt P41180); assay: response of Xenopus oocytes injected with human parathyroid mRNA; assay type: cell-based; settings: human parathyroid mRNA
# T3 sequence (P41180 20-1078): T1 sequence (P41180 20-1078)
# Method: Oocytes were injected with poly(A)^+ -enriched mRNA from human parathyroid tissue (hyperplastic glands from a case of secondary HPT).
# (§1) Glass capillary tubes (1 mm diameter) were pulled to a fine tip and manually broken to achieve a tip diameter of about 15 μmeters. A droplet of mRNA (1 ng/nl in diethylpyrocarbonate (DEPC)-treated water) was placed onto […]® and drawn into the capillary tube by suction. The capillary tube was then connected to a picospritzer (WPI Instruments) and the volume of the air-pulsed droplets adjusted to deliver 50 ng of mRNA (typically 50 nl). A 35-mm culture dish with a patch of nylon stocking fixed to the bottom was used to secure the oocytes during injection of mRNA into the vegetal pole. The injected oocytes were placed into a 35-mm culture dish containing MBS, 100 μg/ml penicillin and 100 μg/ml streptomycin and incubated at 18° C. for 3 days.
# (§2) Following incubation, an oocyte was placed into a 100-μl plastic chamber and superfused with MBS at a flow rate of 0.5 ml/min using a peristaltic pump. Test molecules or inorganic polycations were added by rapidly moving the tubing into different buffers. Recording and current-passing electrodes were constructed from thin-wall capillary tubing pulled to a resistance of 1-3 Mohms and filled with 3M KCl. […] Currents were recorded directly onto a strip chart recorder.
# Using this screen allows one to test for an action directly on the calcium receptor. Oocytes expressing the calcium receptor also responded to several molecules active on intact parathyroid cells when screened as follows. […] This offers rather compelling evidence showing that these molecules act on the calcium receptor or on some other protein intimately associated with its function.
# [6] = system: parathyroid cell calcium receptor; assay type: cell-based; settings: for EC50: screened as in Example 1
# Method: For example, bovine parathyroid cells loaded with fura-2 are initially suspended in buffer containing 0.5 mM CaCl2. A test substance is added to the cuvette in a small volume (5-15 μl) and changes in the fluorescence signal are measured. Cumulative increases in the concentration of the test substance are made in the cuvette until some predetermined concentration is achieved or no further changes in fluorescence are noted.
# This section describes procedures used to obtain and treat parathyroid cells from calves and humans. […] Human parathyroid glands, were obtained from patients undergoing surgical removal of parathyroid tissue for primary or uremic hyperparathyroidism (uremic HPT), and were treated similarly to bovine tissue.
# Glands were trimmed of excess fat and connective tissue and then minced with fine scissors into cubes approximately 2-3 mm on a side. Dissociated parathyroid cells were prepared by collagenase digestion and then purified by centrifugation in Percoll buffer. The resultant parathyroid cell preparation was essentially devoid of red blood cells, adipocytes, and capillary tissue as assessed by phase contrast microscopy and Sudan black B staining. Dissociated and purified parathyroid cells were present as small clusters containing 5 to 20 cells.
# as §3, §4
# Dissociated bovine parathyroid cells were purified on gradients of Percoll and cultured overnight in serum-free medium.
# [7] = system: increases in [Ca2+]i elicited by extracellular Ca2+ in bovine parathyroid cells; assay: block of extracellular Ca2+-induced [Ca2+]i increase / Ca2+ influx in bovine parathyroid cells; assay type: cell-based
# Method: as §3, §4
# [8] = system: osteoclast calcium receptor; assay: increase in [Ca2+]i in indo-1-loaded rat osteoclasts; assay type: cell-based
# [9] = target: T4, bovine parathyroid cell calcium receptor (BoPCaR 1) (Bos taurus, UniProt P35384); assay: Cl- current in Xenopus oocytes expressing BoPCaR 1; assay type: cell-based; settings: 1 mM extracellular Ca2+
# T4 construct: Xenopus oocytes were injected with BoPCaR 1, the 5.3 Kb cDNA encoding a bovine parathyroid cell calcium receptor; expressed in transfected cells; host or cells: Xenopus laevis oocytes injected with cRNA/cDNA of BoPCaR 1
# T4 sequence (P35384 20-1085): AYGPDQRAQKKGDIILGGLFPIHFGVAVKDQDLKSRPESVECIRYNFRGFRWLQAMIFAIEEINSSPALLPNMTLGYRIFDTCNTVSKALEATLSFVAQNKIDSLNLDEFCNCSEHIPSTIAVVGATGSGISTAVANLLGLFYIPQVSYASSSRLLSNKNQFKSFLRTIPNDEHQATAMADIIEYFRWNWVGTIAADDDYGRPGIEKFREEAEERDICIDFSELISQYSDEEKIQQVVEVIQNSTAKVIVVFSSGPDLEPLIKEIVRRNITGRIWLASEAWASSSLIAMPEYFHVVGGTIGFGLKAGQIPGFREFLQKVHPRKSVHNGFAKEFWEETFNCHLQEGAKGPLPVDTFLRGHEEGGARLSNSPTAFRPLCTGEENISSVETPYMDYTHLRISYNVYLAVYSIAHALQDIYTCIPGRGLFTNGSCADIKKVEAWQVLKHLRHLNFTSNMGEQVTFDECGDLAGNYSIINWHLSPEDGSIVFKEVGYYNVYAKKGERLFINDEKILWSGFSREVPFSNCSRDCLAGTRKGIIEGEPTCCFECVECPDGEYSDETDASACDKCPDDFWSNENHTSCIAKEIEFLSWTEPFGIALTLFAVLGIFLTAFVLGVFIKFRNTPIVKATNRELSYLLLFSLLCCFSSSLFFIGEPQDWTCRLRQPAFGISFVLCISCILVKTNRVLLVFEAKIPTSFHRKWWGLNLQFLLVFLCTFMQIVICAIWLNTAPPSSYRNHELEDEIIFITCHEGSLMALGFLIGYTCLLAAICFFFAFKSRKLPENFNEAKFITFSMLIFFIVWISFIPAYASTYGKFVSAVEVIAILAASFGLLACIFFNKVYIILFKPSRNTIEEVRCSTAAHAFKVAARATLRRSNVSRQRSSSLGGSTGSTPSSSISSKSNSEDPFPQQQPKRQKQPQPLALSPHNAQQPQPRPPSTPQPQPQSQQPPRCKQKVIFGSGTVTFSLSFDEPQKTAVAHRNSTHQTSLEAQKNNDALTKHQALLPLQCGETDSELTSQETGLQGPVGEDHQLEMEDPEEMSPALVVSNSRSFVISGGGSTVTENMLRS
# Method: as §2
# The techniques used to clone the parathyroid calcium receptor are briefly described in this example; a more complete description of the techniques is provided in preceding sections, which describe techniques which may be used to clone additional forms of the Ca^2+ -receptor from other cell types. Poly(A^+)-enriched mRNA was initially prepared from bovine parathyroid glands by extracting with guanidinium thiocyanate, centrifugation through CsCl and oligo(dT) cellulose chromatography. […] No such currents were elicited in control eggs injected with water.
# These responses are mediated by the following series of biochemical events:
# Xenopus oocytes were injected with BoPCaR 1, the 5.3 Kb cDNA encoding a bovine parathyroid cell calcium receptor as described in Example 25. After two to three days, Cl^- currents were examined in the oocytes using a two-electrode voltage clamp.
# Xenopus oocytes were injected with BoPCaR 1 as described in Example 25. After two to three days, Cl^- currents were examined in the oocytes using two electrode voltage clamp.
# [10] = target: T5, calcium receptor expressed from bovine parathyroid cell mRNA in Xenopus oocytes (Bos taurus, UniProt P35384); assay: Cl- current in Xenopus oocytes injected with bovine parathyroid mRNA; assay type: cell-based; settings: for oscillatory increases in Cl- current (words): bovine parathyroid mRNA
# T5 sequence (P35384 20-1085): T4 sequence (P35384 20-1085)
# Method: as §1, §2
smiles,measurement,setting,value
"NCCCNCCCCNCCCN [Spermine, spermine]",inhibition of PTH secretion,[1],inhibits PTH secretion; also recorded: inhibited PTH secretion to the same extent
COCCOC(=O)C1=C(C)NC(C)=C(C(=O)OC(C)C)C1c1cccc([N+](=O)[O-])c1 (centres unmarked) [nimodipine],effect on Mg2+-elicited sustained [Ca2+]i increase,[2],not affected
NCCCNCCCCNCCCNCCCN(O)CCCNC(=O)Cc1c[nH]c2cccc(O)c12 [NPS 015],EC50 C-CELL (Table 6),[3],inactive
"C1CNCCNCCNCCNCCNCCN1 [Hexacyclen, 1,4,7,10,13,16-hexaaza-cyclooctadecane]",Net (+) Charge (Table 1),[4],+6
same,concentration effective in oocytes,[5],135 µM
same,relative potency (fold),[6]; hexacyclen vs NPS 383,7 fold
same,relative potency (fold),[6]; hexacyclen vs […],25 fold
same,EC50,"[6]; parathyroid cells, read-out: EC50 (Table 1)",20 µM
"NCCCCCCCCCCCCN [1,12-diaminododecane (DADD), 1,12-diaminododecane]",Net (+) Charge (Table 1),[4],+2
same,effect of pretreatment on increases in [Ca2+]i elicited by extracellular Ca2+,[7]; 100 to 1000 μM,"depresses steady-state, but not transient increases"
same,fall in [Ca2+]i,"[7]; 100 to 1000 μM, buffer containing 2 mM CaCl2",prompt fall
"NCCCCNCCCN [Spermidine, spermidine]",Net (+) Charge (Table 1),[4],+3
same,"increase in [Ca2+]i in osteoclasts, overall",[8],none of these caused any large increase
same,EC50,[6]; read-out: EC50 (Table 3),2000 µM
CC(Cc1ccccc1)NCCC(c1ccccc1)c1ccccc1 (centres unmarked) [Prenylamine],increase in [Ca2+]i (words),[8]; rat osteoclasts,mobilization
NCCCNCCCCNCCCNCCCN(O)CCCNC(=O)Cc1c[nH]c2ccccc12 [NPS 017],EC50 OSTEOCLAST (Table 6),"[8]; rat osteoclasts, indo-1, inactive = no increase in cytosolic Ca2+ at 1-5 mM",inactive
same,Cl- current,[9],oscillatory increases
CCN(CC)CCCCCCCCOC(=O)c1cc(OC)c(OC)c(OC)c1 [TMB-8],block of influx of extracellular Ca2+,[7]; 100 μM,blocked the influx of extracellular
same,potentiation of mobilization of intracellular Ca2+ elicited by extracellular divalent cations,[6]; 100 μM,potentiated the mobilization of intracellular; also recorded: potentiated transient increases
same,change in [Ca2+]i,"[6]; 100 μM, 0.5 mM extracellular Ca2+",evoked no change
same,increase in [Ca2+]i at intermediate extracellular Ca2+,"[6]; 100 μM, 1-[…] extracellular Ca2+","small, but robust increase"
"CC(NCCC(c1ccccc1)c1ccccc1)c1ccccc1 (racemic) [Fendiline, diphenylpropyl-α-phenethylamine]",EC50,"[8]; rat osteoclasts, indo-1, inactive = no increase in cytosolic Ca2+ at 1-5 mM, read-out: EC50 OSTEOCLAST (Table 6)",200 µM
same,concentration eliciting oscillatory increases in Cl- current,[10],100 µM
same,oscillatory increases in Cl- current (words),[10],evokes the mobilization of intracellular
same,oscillatory increases in Cl- current (words),[10]; listed as fendiline,evokes oscillatory increases
same,EC50,[3],> 100 µM
